Key:
morningglory = experiment: Test A morningglory; format: in vivo, Ipomoea spp.; details: 0 to 10 scale where 0 is no effect and 10 is complete control
Outline: (§1)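 Visual injury score, 0 (no effect) to 10 (complete control), vs untreated controls at ~11 d in greenhouse. Pre: soil drench on sandy loam. Post: spray to runoff, 1–2 leaf stage.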

crabgrass = experiment: Test A crabgrass; format: in vivo, Digitaria spp.; details: 0 to 10 scale where 0 is no effect and 10 is complete control
Outline: as §1

barnyardgrass = experiment: Test A barnyardgrass; format: in vivo, Echinochloa crus-galli; details: 0 to 10 scale where 0 is no effect and 10 is complete control
Outline: as §1

purple nutsedge = experiment: Test D purple nutsedge; format: in vivo, Cyperus rotundus; details: Rate 125 g/ha, Preemergence; 0 to 100 scale, 0 no injury, 100 complete control
Outline: (§2)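 Visual injury ratings, 0 = no injury to 100 = complete control, taken 14 to 21 days after treatment. Test chemicals were in a surfactant-containing non-phytotoxic solvent; preemergence treatments went onto the sandy loam surface of seeded greenhouse pots within one day of sowing.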

common groundsel = experiment: Test D common groundsel; format: in vivo, Senecio vulgaris; details: Rate 125 g/ha, Preemergence; 0 to 100 scale, 0 no injury, 100 complete control
Outline: as §2

common ragweed = experiment: Test D common ragweed; format: in vivo, Ambrosia elatior; details: Rate 125 g/ha, Preemergence; 0 to 100 scale, 0 no injury, 100 complete control
Outline: as §2

sandbur = experiment: Test D sandbur; format: in vivo, Cenchrus echinatus; details: Rate 125 g/ha, Preemergence; 0 to 100 scale, 0 no injury, 100 complete control
Outline: as §2

Green foxtail = experiment: Test D green foxtail; format: in vivo; details: Rate 125 g/ha, Preemergence; 0 to 100 scale, 0 no injury, 100 complete control
Outline: as §2

pitted morningglory = experiment: Test D pitted morningglory; format: in vivo, Ipomoea lacunosa; details: Rate 125 g/ha, Preemergence; 0 to 100 scale, 0 no injury, 100 complete control
Outline: as §2

guineagrass = experiment: Test D guineagrass; format: in vivo, Panicum maximum; details: Rate 125 g/ha, Preemergence; 0 to 100 scale, 0 no injury, 100 complete control
Outline: as §2

bermuda-grass = experiment: Test D bermudagrass; format: in vivo, Cynodon dactylon; details: Rate 125 g/ha, Preemergence; 0 to 100 scale, 0 no injury, 100 complete control
Outline: as §2

dallisgrass = experiment: Test D dallisgrass; format: in vivo, Paspalum dilatatum; details: Rate 125 g/ha, Preemergence; 0 to 100 scale, 0 no injury, 100 complete control
Outline: as §2

Spanishneedles = experiment: Test D Spanishneedles; format: in vivo, Bidens bipinnata; details: Rate 125 g/ha, Preemergence; 0 to 100 scale, 0 no injury, 100 complete control
Outline: as §2

goosegrass = experiment: Test D goosegrass; format: in vivo, Eleusine indica; details: Rate 125 g/ha, Preemergence; 0 to 100 scale, 0 no injury, 100 complete control
Outline: as §2

common pursiane = experiment: Test D common purslane; format: in vivo, Portulaca oleracea; details: Rate 125 g/ha, Preemergence; 0 to 100 scale, 0 no injury, 100 complete control
Outline: as §2

itchgrass = experiment: Test D itchgrass; format: in vivo, Rottboellia exaltata; details: Rate 125 g/ha, Preemergence; 0 to 100 scale, 0 no injury, 100 complete control
Outline: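 Scoring used a 0–100 visual injury scale, with 0 meaning no effect and 100 complete control, assessed 14–21 days after application alongside untreated pots. Preemergence treatments went onto sandy loam surfaces of separately potted seeds within a day of sowing.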

large crabgrass = experiment: Test D large crabgrass; format: in vivo, Digitaria sanguinalis; details: Rate 125 g/ha, Preemergence; 0 to 100 scale, 0 no injury, 100 complete control
Outline: as §2

Cc1cccc(Cl)c1-n1c(=O)on(C(=O)N(c2ccc(F)cc2)C(C)C)c1=O [Compound 53]
Plant response rating, Morningglory (morningglory; Postemergence, Rate 1000 g/ha): 0 | Plant response rating, Morningglory (morningglory; Pre-emergence, Rate 2000 g/ha): 0 | Plant response rating, Crabgrass (crabgrass; Postemergence, Rate 1000 g/ha): 6 | Plant response rating, Crabgrass (crabgrass; Pre-emergence, Rate 2000 g/ha): 9 | Plant response rating, Barnyardgrass (barnyardgrass; Postemergence, Rate 1000 g/ha): 3 | Plant response rating, Barnyardgrass (barnyardgrass; Pre-emergence, Rate 2000 g/ha): 8

CC(C)N(C(=O)n1oc(=O)n(C(C)C)c1=O)c1ccc(Cl)cc1 [Compound 114]
Purple nutsedge plant response rating (purple nutsedge): 20 | Plant response rating, Com. groundsel (common groundsel): 85 | Plant response rating, C. ragweed (common ragweed): 0 | Sandbur plant response rating (sandbur): 85 | Green foxtail plant response rating (Green foxtail): 100 | Plant response rating, Green foxtail (Green foxtail): 100 | Plant response rating, Morningglory (morningglory; Postemergence, Rate 1000 g/ha): 10 | Plant response rating, Morningglory (morningglory; Pre-emergence, Rate 2000 g/ha): 6 | Plant response rating, P. morninglory (pitted morningglory): 0 | Plant response rating, Guineagrass (guineagrass): 100 | Plant response rating, Crabgrass (crabgrass; Postemergence, Rate 1000 g/ha): 7 | Plant response rating, Crabgrass (crabgrass; Pre-emergence, Rate 2000 g/ha): 10 | Plant response rating, Bermudagrass (bermuda-grass): 100 | Plant response rating, Barnyardgrass (barnyardgrass; Postemergence, Rate 1000 g/ha): 8 | Plant response rating, Barnyardgrass (barnyardgrass; Pre-emergence, Rate 2000 g/ha): 10 | Plant response rating, Dallisgrass (dallisgrass): 100 | Spanishneedles plant response rating (Spanishneedles): 0 | Plant response rating, Goosegrass (goosegrass): 100 | Plant response rating, C. purslane (common pursiane): 0 | Plant response rating, Itchgrass (itchgrass): 20 | Plant response rating Large crabgrass (large crabgrass): 100

CC(C)N(C(=O)n1oc(=O)n(N(C)C)c1=O)c1ccccc1 [Compound 225]
Plant response rating, Morningglory (morningglory; Postemergence, Rate 1000 g/ha): 10 | Plant response rating, Morningglory (morningglory; Pre-emergence, Rate 2000 g/ha): 8 | Plant response rating, Crabgrass (crabgrass; Postemergence, Rate 1000 g/ha): 9 | Plant response rating, Crabgrass (crabgrass; Pre-emergence, Rate 2000 g/ha): 10 | Plant response rating, Barnyardgrass (barnyardgrass; Postemergence, Rate 1000 g/ha): 9 | Plant response rating, Barnyardgrass (barnyardgrass; Pre-emergence, Rate 2000 g/ha): 10

— patent US6737383B1, “Herbicidal oxadiazolidines” (priority 1999, dated 2004)
